One compound from article PMC10935061 (Acta Pharmaceutica Sinica. B, 2023) can be followed below.

The assay addresses Nur77 (Homo sapiens, UniProt P22736). Kind of assay: SPR. The format is binding.

Sequence of Nur77 (P22736 360-598 limits assumed): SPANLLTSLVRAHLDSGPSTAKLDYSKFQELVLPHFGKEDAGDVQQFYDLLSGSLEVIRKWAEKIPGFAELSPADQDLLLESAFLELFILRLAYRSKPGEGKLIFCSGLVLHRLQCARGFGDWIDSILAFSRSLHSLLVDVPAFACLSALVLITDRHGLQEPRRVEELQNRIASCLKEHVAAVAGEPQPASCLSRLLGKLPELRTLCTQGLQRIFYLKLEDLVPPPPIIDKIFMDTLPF

With `CCCCCCCC(=O)c1cc(OC)c(OC)c(OC)c1CC(=O)OCC` [TMPA], the Kd is 380 nM.

The Kd is the free concentration of one partner at which half of the binding sites on the other are occupied at equilibrium, for simple one-to-one binding. A lower Kd goes with tighter binding.
